Measurements published in US12227512B2, “Benzimidazoles and methods of using same” (priority 2019, dated 2025).

Assays:
[1] = system: Zika MR766; experiment: In vitro antiviral screening, Neutral Red (Cytopathic effect); conditions: Vero 76
[2] = Neutral Red (Toxicity) of the antiviral screening; conditions: human, Huh7 cells
[3] = Mouse PK evaluation, plasma, IV; conditions: CD-1 mice; for concentration at 0.083 h / concentration at 0.25 h / concentration at 0.5 h / concentration at 1 h / concentration at 2 h / concentration at 4 h / concentration at 8 h / concentration at 24 h / AUC(0-inf) / AUC(0-t) / MRT inf / half-life: CD-1, mouse, plasma, 3 mg/kg; for concentration at 0.083 h / concentration at 0.25 h / concentration at 0.5 h / concentration at 1 h / concentration at 2 h / concentration at 4 h / concentration at 8 h / concentration at 24 h: intravenous, Plasma concentration; for AUC(0-inf) / AUC(0-t) / MRT inf / half-life: iv; for AUC(0-inf): AUCInf; for AUC(0-t): AUClast; for MRT inf: MRTInf_obs
[4] = system: Zika MR766; experiment: In vitro antiviral screening, Visual (Virus yield reduction); conditions: Vero 76
[5] = system: Dengue virus 2 New Guinea C; experiment: In vitro antiviral screening, Neutral Red (Cytopathic effect); conditions: Huh7; for SI50: Neutral Red (Cytopathic effect/Toxicity); for EC50: Dengue virus, Neutral Red (Cytopathic effect)
[6] = system: Vero 76; experiment: Neutral Red (Toxicity) of the antiviral screening; conditions: Assay No. 3; Neutral Red (Cytopathic effect/Toxicity) line
[7] = Neutral Red (Toxicity) of the antiviral screening; conditions: African green monkey, Vero 76 cells
[8] = system: Dengue virus 2 New Guinea C; experiment: In vitro antiviral screening, Visual (Virus yield reduction); conditions: Huh7; for SI90: Visual (Virus yield reduction)/Neutral Red (Toxicity); for EC90: Dengue virus, Visual (Virus yield reduction)

Q: With CN(C)CCCn1c(N)nc2ccc3c(c21)CC(CO)O3 (centres unmarked) [DD041] as the compound, how does the SI50 ([1]; Assay No. 3, Neutral Red (Cytopathic effect/Toxicity)) read?
A: >9.1

Q: What about the EC50 ([1]; Zika virus) of the same compound?
A: 11 µM

Q: What about the CC50 ([2]; CC50, Assay No. 1, Neutral Red (Cytopathic effect/Toxicity) line) of the same compound?
A: > 100 µM

Q: What about the CC50 ([2]; CC50, Assay No. 1, Neutral Red (Toxicity), line of the virus yield reduction assay) of the same compound?
A: > 100 µM

Q: What about the CC50 ([2]; CC50, Assay No. 2, Neutral Red (Cytopathic effect/Toxicity) line) of the same compound?
A: 26 µM

Q: And the CC50 ([2]; CC50, Assay No. 2, Neutral Red (Toxicity), line of the virus yield reduction assay)?
A: 26 µM

Q: And the “AUC_%Extrap_obs, Mean” value ([3]; 3 mg/kg IV)?
A: 1.88%

Q: What about the “AUC_%Extrap_obs, Mouse 1” value ([3]; 3 mg/kg IV) of the same compound?
A: 3.73%

Q: What about the “AUC_%Extrap_obs, Mouse 2” value ([3]; 3 mg/kg IV) of the same compound?
A: 0.927%

Q: What about the “AUC_%Extrap_obs, Mouse 3” value ([3]; 3 mg/kg IV) of the same compound?
A: 0.993%

Q: What about the “AUClast/D, Mean” value ([3]; 3 mg/kg IV) of the same compound?
A: 262

Q: And the “AUClast/D, Mouse 1” value ([3]; 3 mg/kg IV)?
A: 261

Q: What about the “AUClast/D, Mouse 2” value ([3]; 3 mg/kg IV) of the same compound?
A: 251

Q: And the “AUClast/D, Mouse 3” value ([3]; 3 mg/kg IV)?
A: 274

Q: What about the “C0, Mean” value ([3]; 3 mg/kg IV) of the same compound?
A: 1959 ng/mL

Q: And the “C0, Mouse 1” value ([3]; 3 mg/kg IV)?
A: 2033 ng/mL

Q: What about the “C0, Mouse 2” value ([3]; 3 mg/kg IV) of the same compound?
A: 1738 ng/mL

Q: What about the “C0, Mouse 3” value ([3]; 3 mg/kg IV) of the same compound?
A: 2107 ng/mL

Q: What about the “Cl_obs, Mean” value ([3]; 3 mg/kg IV) of the same compound?
A: 62.5 mL/min/kg

Q: What about the “Cl_obs, Mouse 1” value ([3]; 3 mg/kg IV) of the same compound?
A: 61.4 mL/min/kg

Q: And the “Cl_obs, Mouse 2” value ([3]; 3 mg/kg IV)?
A: 65.8 mL/min/kg

Q: What about the “Cl_obs, Mouse 3” value ([3]; 3 mg/kg IV) of the same compound?
A: 60.3 mL/min/kg

Q: What about the “Vss_obs, Mean” value ([3]; 3 mg/kg IV) of the same compound?
A: 7.55 L/kg

Q: What about the “Vss_obs, Mouse 1” value ([3]; 3 mg/kg IV) of the same compound?
A: 5.80 L/kg

Q: And the “Vss_obs, Mouse 2” value ([3]; 3 mg/kg IV)?
A: 8.48 L/kg

Q: And the “Vss_obs, Mouse 3” value ([3]; 3 mg/kg IV)?
A: 8.37 L/kg

Q: And the “Plasma concentration, Mouse 1” value ([3]; 3 mg/kg IV, 24 h)?
A: BLOQ

Q: What about the concentration at 0.083 h ([3]; Mean, 3 mg/kg IV) of the same compound?
A: 1170 ng/mL

Q: And the concentration at 0.25 h ([3]; Mean, 3 mg/kg IV)?
A: 417 ng/mL

Q: And the concentration at 0.5 h ([3]; Mean, 3 mg/kg IV)?
A: 281 ng/mL

Q: And the concentration at 1 h ([3]; Mean, 3 mg/kg IV)?
A: 161 ng/mL

Q: What about the concentration at 2 h ([3]; Mean, 3 mg/kg IV) of the same compound?
A: 65.7 ng/mL

Q: What about the concentration at 4 h ([3]; Mean, 3 mg/kg IV) of the same compound?
A: 27.4 ng/mL

Q: What about the concentration at 8 h ([3]; Mean, 3 mg/kg IV) of the same compound?
A: 8.4 ng/mL

Q: What about the concentration at 24 h ([3]; Mean, 3 mg/kg IV, 24 h) of the same compound?
A: 1.11 ng/mL

Q: What about the concentration at 0.083 h ([3]; Mouse 1, 3 mg/kg IV) of the same compound?
A: 1250 ng/mL

Q: And the concentration at 0.25 h ([3]; Mouse 1, 3 mg/kg IV)?
A: 470 ng/mL

Q: And the concentration at 0.5 h ([3]; Mouse 1, 3 mg/kg IV)?
A: 322 ng/mL

Q: And the concentration at 1 h ([3]; Mouse 1, 3 mg/kg IV)?
A: 145 ng/mL

Q: And the concentration at 2 h ([3]; Mouse 1, 3 mg/kg IV)?
A: 67.5 ng/mL

Q: And the concentration at 4 h ([3]; Mouse 1, 3 mg/kg IV)?
A: 31.6 ng/mL

Q: And the concentration at 8 h ([3]; Mouse 1, 3 mg/kg IV)?
A: 9.69 ng/mL

Q: What about the concentration at 0.083 h ([3]; Mouse 2, 3 mg/kg IV) of the same compound?
A: 1070 ng/mL

Q: What about the concentration at 0.25 h ([3]; Mouse 2, 3 mg/kg IV) of the same compound?
A: 403 ng/mL

Q: And the concentration at 0.5 h ([3]; Mouse 2, 3 mg/kg IV)?
A: 255 ng/mL

Q: And the concentration at 1 h ([3]; Mouse 2, 3 mg/kg IV)?
A: 152 ng/mL

Q: And the concentration at 2 h ([3]; Mouse 2, 3 mg/kg IV)?
A: 66.4 ng/mL

Q: And the concentration at 4 h ([3]; Mouse 2, 3 mg/kg IV)?
A: 28.5 ng/mL

Q: And the concentration at 8 h ([3]; Mouse 2, 3 mg/kg IV)?
A: 6 ng/mL

Q: What about the concentration at 24 h ([3]; Mouse 2, 3 mg/kg IV, 24 h) of the same compound?
A: 1.05 ng/mL

Q: What about the concentration at 0.083 h ([3]; Mouse 3, 3 mg/kg IV) of the same compound?
A: 1190 ng/mL

Q: What about the concentration at 0.25 h ([3]; Mouse 3, 3 mg/kg IV) of the same compound?
A: 377 ng/mL

Q: And the concentration at 0.5 h ([3]; Mouse 3, 3 mg/kg IV)?
A: 267 ng/mL

Q: What about the concentration at 1 h ([3]; Mouse 3, 3 mg/kg IV) of the same compound?
A: 187 ng/mL

Q: And the concentration at 2 h ([3]; Mouse 3, 3 mg/kg IV)?
A: 63.3 ng/mL

Q: And the concentration at 4 h ([3]; Mouse 3, 3 mg/kg IV)?
A: 22 ng/mL

Q: And the concentration at 8 h ([3]; Mouse 3, 3 mg/kg IV)?
A: 9.51 ng/mL

Q: And the concentration at 24 h ([3]; Mouse 3, 3 mg/kg IV, 24 h)?
A: 1.17 ng/mL

Q: And the AUC(0-inf) ([3]; Mean, 3 mg/kg IV)?
A: 801 ng·h/mL

Q: And the AUC(0-inf) ([3]; Mouse 1, 3 mg/kg IV)?
A: 814 ng·h/mL

Q: What about the AUC(0-inf) ([3]; Mouse 2, 3 mg/kg IV) of the same compound?
A: 760 ng·h/mL

Q: What about the AUC(0-inf) ([3]; Mouse 3, 3 mg/kg IV) of the same compound?
A: 829 ng·h/mL

Q: And the AUC(0-t) ([3]; Mean, 3 mg/kg IV)?
A: 786 ng·h/mL

Q: What about the AUC(0-t) ([3]; Mouse 1, 3 mg/kg IV) of the same compound?
A: 784 ng·h/mL

Q: And the AUC(0-t) ([3]; Mouse 2, 3 mg/kg IV)?
A: 753 ng·h/mL

Q: What about the AUC(0-t) ([3]; Mouse 3, 3 mg/kg IV) of the same compound?
A: 821 ng·h/mL

Q: What about the MRT inf ([3]; Mean, 3 mg/kg IV) of the same compound?
A: 2.01 h

Q: What about the MRT inf ([3]; Mouse 1, 3 mg/kg IV) of the same compound?
A: 1.57 h

Q: And the MRT inf ([3]; Mouse 2, 3 mg/kg IV)?
A: 2.15 h

Q: What about the MRT inf ([3]; Mouse 3, 3 mg/kg IV) of the same compound?
A: 2.31 h

Q: And the half-life ([3]; T1/2, Mean, 3 mg/kg IV)?
A: 3.9 h

Q: What about the half-life ([3]; T1/2, Mouse 1, 3 mg/kg IV) of the same compound?
A: 2.17 h

Q: What about the half-life ([3]; T1/2, Mouse 2, 3 mg/kg IV) of the same compound?
A: 4.65 h

Q: What about the half-life ([3]; T1/2, Mouse 3, 3 mg/kg IV) of the same compound?
A: 4.87 h

Q: What about the SI90 ([4]; Assay No. 3, Visual (Virus yield reduction)/Neutral Red (Toxicity)) of the same compound?
A: >5.9

Q: And the EC90 ([4]; Zika virus)?
A: 17 µM

Q: What about the SI50 ([5]; Assay No. 1) of the same compound?
A: >15

Q: And the SI50 ([5]; Assay No. 2)?
A: 4.6

Q: What about the EC50 ([5]; Huh-7, Assay No. 1) of the same compound?
A: 6.7 µM

Q: And the EC50 ([5]; Huh-7, Assay No. 2)?
A: 5.6 µM

Q: What about the CC50 [6] of the same compound?
A: > 100 µM

Q: What about the CC50 [7] of the same compound?
A: > 100 µM

Q: What about the SI90 ([8]; Assay No. 1) of the same compound?
A: >10

Q: And the SI90 ([8]; Assay No. 2)?
A: 14

Q: What about the EC90 ([8]; Huh-7, Assay No. 1) of the same compound?
A: 10 µM

Q: What about the EC90 ([8]; Huh-7, Assay No. 2) of the same compound?
A: 1.83 µM
